In general, EC50 refers to the concentration at which the effect is half-maximal.

This assay has as its target T1, hAHR (Homo sapiens, UniProt P35869).
T1 construct: expressed in transfected cells
T1 sequence (P35869 11-848): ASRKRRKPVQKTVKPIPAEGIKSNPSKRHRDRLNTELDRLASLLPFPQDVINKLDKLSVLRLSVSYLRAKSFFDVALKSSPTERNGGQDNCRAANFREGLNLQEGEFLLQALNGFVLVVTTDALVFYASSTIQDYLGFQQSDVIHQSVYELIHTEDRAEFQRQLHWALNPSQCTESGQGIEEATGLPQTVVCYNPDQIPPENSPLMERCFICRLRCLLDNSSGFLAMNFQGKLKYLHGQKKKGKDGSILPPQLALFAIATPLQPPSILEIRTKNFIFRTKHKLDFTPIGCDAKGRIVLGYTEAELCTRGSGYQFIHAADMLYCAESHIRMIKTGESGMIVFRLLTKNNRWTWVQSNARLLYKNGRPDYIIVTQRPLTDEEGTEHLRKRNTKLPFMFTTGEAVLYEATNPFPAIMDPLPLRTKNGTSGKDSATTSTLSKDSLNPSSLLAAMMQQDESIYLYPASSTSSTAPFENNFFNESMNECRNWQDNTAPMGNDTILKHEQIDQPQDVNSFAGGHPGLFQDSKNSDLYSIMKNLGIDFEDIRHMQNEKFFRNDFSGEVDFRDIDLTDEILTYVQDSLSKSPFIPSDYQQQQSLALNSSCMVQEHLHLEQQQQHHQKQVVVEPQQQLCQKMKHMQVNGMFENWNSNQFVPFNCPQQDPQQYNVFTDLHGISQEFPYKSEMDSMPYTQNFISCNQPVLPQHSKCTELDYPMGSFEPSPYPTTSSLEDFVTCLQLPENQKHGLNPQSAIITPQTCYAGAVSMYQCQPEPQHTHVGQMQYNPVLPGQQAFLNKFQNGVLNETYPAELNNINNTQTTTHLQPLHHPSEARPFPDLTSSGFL
The experiment in a line: hAHR nuclear translocation assay. The assay is classed as cell-based. Conditions: Jump-In T-REx HEK293 cells expressing AhR-EGFP; 45 min incubation; ratio of EGFP intensity in nuclear over cytosol; 20-point curve. As for the experimental part:
Stable cell lines were established using Jump-In™ T-REx™ HEK293 Retargeting Kit (Life Technologies). hAhR cDNA was cloned into the pJTI R4 CMV-TO EGFP vector. The EGFP was cloned to the C-terminal of AHR to form AhR-EGFP chimera. The pJTI R4 CMV-TO AhR-EGFP vector was transfected using FuGENE® HD into Jump-In™ T-REx™ HEK293 cells. Transfected cells were selected using 2.5 mg/ml G418 for 10 to 14 days, then expanded, harvested, and suspended in freeze media (FBS with 8% DMSO) at 2×10^7 cells/mL, and aliquots were stored in liquid nitrogen. One day before the assay date, cells were thawed and resuspended in DMEM with 5% FBS in the presence of 1 μg/mL Doxycycline and plated into ploy-L-Lysine coated […]-384 ULTRA Microplates (Perkin Elmer) at 12,000 to 15,000 cells per well and incubated at 37° C. and 5% CO2 overnight. On the assay date, compound was serially diluted (1:2) into 384-well nunc plates with DMSO using acoustic dispensing (ECHO). The dose response was a 20-point curve. Compound was resuspended in 40 μL of DMEM plus 0.1% BSA. The culture media was damped and 25 μL of DMEM plus 0.1% BSA was added, then 25 μL of compound in DMEM plus 0.1% BSA was added into cell plates. Cells were incubated with compounds at 37° C. and 5% CO2 for 45 min.
The final DMSO concentration was 0.2%. The media was damped after 45 minutes incubation. The cells were fixed with 40 μL of cold MeOH (−20° C.) for 20 min. The MeOH was damped and 50 μL of DPBS containing 1 μg/mL Hochst was added into the cell plates. The intensity of EGFP was quantitated by using OPERA PHENIX® or Operetta™ high content image system (Perkin Elmer) with 20× Water Objective and five field per well. The ratio of EGFP fluorescent intensity in nuclear over cytosol was analyzed using a 4-parameter nonlinear logistic equation to determine the potency of AhR agonists.

Take `CC1CCc2c1c(O)c(C(=O)Nc1ncco1)c(=O)n2C` (single isomer, unassigned) [Example 34, 4-Hydroxy-1,5-dimethyl-N-oxazol-2-yl-2-oxo-6,7-dihydro-5H-cyclopenta[b]pyridine-3-carboxamide]: the EC50 was determined as 7.46 nM.
The figure for `CC1CCc2c1c(O)c(C(=O)Nc1ncco1)c(=O)n2C` (single isomer, unassigned) [Example 35, 4-Hydroxy-1,5-dimethyl-N-oxazol-2-yl-2-oxo-6,7-dihydro-5H-cyclopenta[b]pyridine-3-carboxamide] is 4.42 nM.
As to `CC1CCc2c1c(O)c(C(=O)Nc1ccns1)c(=O)n2C` (single isomer, unassigned) [Example 36, 4-Hydroxy-N-isothiazol-5-yl-1,5-dimethyl-2-oxo-6,7-dihydro-5H-cyclopenta[b]pyridine-3-carboxamide], the EC50 stood at 2.78 nM.
Turning to `CC1CCc2c1c(O)c(C(=O)Nc1ccns1)c(=O)n2C` (single isomer, unassigned) [Example 37, 4-Hydroxy-N-isothiazol-5-yl-1,5-dimethyl-2-oxo-6,7-dihydro-5H-cyclopenta[b]pyridine-3-carboxamide], the EC50 was 1.97 nM.
In the case of `CC1CCc2c1c(O)c(C(=O)Nc1ccsn1)c(=O)n2C` (single isomer, unassigned) [Example 38, 4-Hydroxy-N-isothiazol-3-yl-1,5-dimethyl-2-oxo-6,7-dihydro-5H-cyclopenta[b]pyridine-3-carboxamide], the EC50 was determined as 1.01 nM.
Take `CC1CCc2c1c(O)c(C(=O)Nc1ccsn1)c(=O)n2C` (single isomer, unassigned) [Example 39, 4-Hydroxy-N-isothiazol-3-yl-1,5-dimethyl-2-oxo-6,7-dihydro-5H-cyclopenta[b]pyridine-3-carboxamide]: the EC50 was determined as 0.378 nM.
As for `CC1CCc2c1c(O)c(C(=O)Nc1cnsc1)c(=O)n2C` (single isomer, unassigned) [Example 40, 4-Hydroxy-N-isothiazol-4-yl-1,5-dimethyl-2-oxo-6,7-dihydro-5H-cyclopenta[b]pyridine-3-carboxamide], the figure is 2.37 nM; as for `CC1CCc2c1c(O)c(C(=O)Nc1cnsc1)c(=O)n2C` (single isomer, unassigned) [Example 41, 4-Hydroxy-N-isothiazol-4-yl-1,5-dimethyl-2-oxo-6,7-dihydro-5H-cyclopenta[b]pyridine-3-carboxamide], 2.65 nM; as for `CC1CCc2c1cc(C(=O)Nc1ccc(F)cn1)c(=O)n2C` (single isomer, unassigned) [Example 56, N-(5-Fluoro-2-pyridyl)-1,5-dimethyl-2-oxo-6,7-dihydro-5H-cyclopenta[b]pyridine-3-carboxamide], 2.44 nM.
For the molecule `CC1CCc2c1cc(C(=O)Nc1ccc(F)cn1)c(=O)n2C` (single isomer, unassigned) [Example 57, N-(5-Fluoro-2-pyridyl)-1,5-dimethyl-2-oxo-6,7-dihydro-5H-cyclopenta[b]pyridine-3-carboxamide], the EC50 came to 1.83 nM.
`CC1CCc2c1cc(C(=O)Nc1ccc(C(F)(F)F)cn1)c(=O)n2C` (single isomer, unassigned) [Example 58, 1,5-Dimethyl-2-oxo-N-[5-(trifluoromethyl)-2-pyridyl]-6,7-dihydro-5H-cyclopenta[b]pyridine-3-carboxamide]: the EC50 amounted to 3.59 nM.
Regarding `CC1CCc2c1cc(C(=O)Nc1ccc(C(F)(F)F)cn1)c(=O)n2C` (single isomer, unassigned) [Example 59, 1,5-Dimethyl-2-oxo-N-[5-(trifluoromethyl)-2-pyridyl]-6,7-dihydro-5H-cyclopenta[b]pyridine-3-carboxamide], the EC50 was found to be 3.59 nM.
As for `CC1CCc2c1cc(C(=O)NC1CCCC1)c(=O)n2C` (single isomer, unassigned) [Example 60, N-Cyclopentyl-1,5-dimethyl-2-oxo-6,7-dihydro-5H-cyclopenta[b]pyridine-3-carboxamide], the figure is 396 nM.
`CC1CCc2c1cc(C(=O)NC1CCCC1)c(=O)n2C` (single isomer, unassigned) [Example 61, N-Cyclopentyl-1,5-dimethyl-2-oxo-6,7-dihydro-5H-cyclopenta[b]pyridine-3-carboxamide]: the 50% effective concentration (EC50) was 42 nM.
As to `CC1CCc2c1cc(C(=O)Nc1nccs1)c(=O)n2C` (single isomer, unassigned) [Example 62, 1,5-Dimethyl-2-oxo-N-thiazol-2-yl-6,7-dihydro-5H-cyclopenta[b]pyridine-3-carboxamide], the EC50 came out at 1.84 nM.
`CC1CCc2c1cc(C(=O)Nc1nccs1)c(=O)n2C` (single isomer, unassigned) [Example 63, 1,5-Dimethyl-2-oxo-N-thiazol-2-yl-6,7-dihydro-5H-cyclopenta[b]pyridine-3-carboxamide]: the EC50 was found to be 2.55 nM.
Regarding `CC1CCc2c1cc(C(=O)Nc1ncc(C(F)(F)F)cn1)c(=O)n2C` (single isomer, unassigned) [Example 64, 1,5-Dimethyl-2-oxo-N-[5-(trifluoromethyl)pyrimidin-2-yl]-6,7-dihydro-5H-cyclopenta[b]pyridine-3-carboxamide], the EC50 was determined as 1.54 nM.
Take `CC1CCc2c1cc(C(=O)Nc1ncc(C(F)(F)F)cn1)c(=O)n2C` (single isomer, unassigned) [Example 65, 1,5-Dimethyl-2-oxo-N-[5-(trifluoromethyl)pyrimidin-2-yl]-6,7-dihydro-5H-cyclopenta[b]pyridine-3-carboxamide]: the EC50 came out at 1.22 nM.
As to `CC1CCc2c1cc(C(=O)Nc1ncccn1)c(=O)n2C` (single isomer, unassigned) [Example 80, 1,5-Dimethyl-2-oxo-N-pyrimidin-2-yl-6,7-dihydro-5H-cyclopenta[b]pyridine-3-carboxamide], the EC50 was found to be 10.9 nM.
For the molecule `CC1CCc2c1cc(C(=O)Nc1ncccn1)c(=O)n2C` (single isomer, unassigned) [Example 82, 1,5-Dimethyl-2-oxo-N-pyrimidin-2-yl-6,7-dihydro-5H-cyclopenta[b]pyridine-3-carboxamide], the EC50 was found to be 25.1 nM.
On to `CC1Cc2c(O)c(C(=O)Nc3ncccn3)c(=O)n(C)c2C1` (single isomer, unassigned) [Example 83, 4-Hydroxy-1,6-dimethyl-2-oxo-N-pyrimidin-2-yl-6,7-dihydro-5H-cyclopenta[b]pyridine-3-carboxamide], for which the EC50 stood at 233 nM.
Regarding `CC1Cc2c(O)c(C(=O)Nc3ncccn3)c(=O)n(C)c2C1` (single isomer, unassigned) [Example 84, 4-Hydroxy-1,6-dimethyl-2-oxo-N-pyrimidin-2-yl-6,7-dihydro-5H-cyclopenta[b]pyridine-3-carboxamide], the EC50 was found to be 8.67 nM.
Regarding `CC1CCc2c1c(O)c(C(=O)Nc1ncccn1)c(=O)n2C` (single isomer, unassigned) [Example 85, 4-Hydroxy-1,5-dimethyl-2-oxo-N-pyrimidin-2-yl-6,7-dihydro-5H-cyclopenta[b]pyridine-3-carboxamide], the EC50 stood at 4.1 nM.
For the molecule `C[C@@H]1CCc2c1c(O)c(C(=O)Nc1ncccn1)c(=O)n2C` (single isomer, unassigned) [Example 86, 4-Hydroxy-1,5-dimethyl-2-oxo-N-pyrimidin-2-yl-6,7-dihydro-5H-cyclopenta[b]pyridine-3-carboxamide], the EC50 came out at 7.79 nM.
Regarding `CC1Cc2c(O)c(C(=O)Nc3ccccn3)c(=O)n(C)c2C1` (single isomer, unassigned) [Example 87, 4-Hydroxy-1,6-dimethyl-2-oxo-N-(2-pyridyl)-6,7-dihydro-5H-cyclopenta[b]pyridine-3-carboxamide], the EC50 stood at 27.3 nM.

Values taken from patent publication US12037322B2, “AHR agonists” (Eli Lilly and Company, priority 2021, dated 2024).
